Assay results published in patent US20060069132A1, “Azolecarboxamide herbicides” (priority 2004, published 2006).

What was measured:
common chickweed = assay: Test E pre-/postemergence herbicide test; assay type: in vivo, Stellaria media
Outline: (§1)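 Postemergence treatment targeted plants at the 1- to 4-leaf stage (2–18 cm), alongside preemergence treatment of planted seed; both used a non-phytotoxic solvent mixture with surfactant. Visual ratings, 0 = no effect to 100 = complete control, were taken 12 to 14 days later.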

wheat = assay: Test C postemergence herbicide test; assay type: in vivo, Triticum aestivum
Protocol: (§2) At the same time, plants selected from these crop and weed species and also winter barley (Hordeum vulgare L.), blackgrass (Alopecurus myosuroides Huds.), canarygrass (Phalaris minor Retz.), chickweed (Stellaria media (L.) Vill.), downy bromegrass (Bromus tectorum L.), green foxtail (Setaria viridis (L.) Beauv.), Italian ryegrass (Lolium multiflorum Lam.), wheat (Triticum aestivum L.), wild oat (Avenafatua L.) and windgrass (Apera spica-venti (L.) Beauv.) were treated with postemergence applications of some of the test chemicals formulated in the same manner. Plants ranged in height from 2 to 18 cm (1- to 4-leaf stage) for postemergence treatments. Plant species in the flooded paddy test consisted of rice (Oryza sativa), smallflower umbrella sedge (Cyperus difformis L.), ducksalad (Heteranthera limosa (Sw.) Willd.) and barnyardgrass (Echinochloa crus-galli (L.) Beauv.) grown to the 2-leaf stage for testing. Treated plants and controls were maintained in a greenhouse for 12 to 14 days, after which time all species were compared to controls and visually evaluated. Plant response ratings, summarized in Table C, are based on a scale of 0 to 100 where 0 is no effect and 100 is complete control. A dash (-) response means no test result.

green foxtail = assay: Test E pre-/postemergence herbicide test; assay type: in vivo, Setaria viridis
Outline: as §1

mustard = assay: Test E pre-/postemergence herbicide test; assay type: in vivo, Brassica nigra
Outline: as §1

downy bromegrass = assay: Test C postemergence herbicide test; assay type: in vivo, Bromus tectorum
Protocol: as §2

guineagrass = assay: Test E pre-/postemergence herbicide test; assay type: in vivo, Panicum maximum
Outline: as §1

Italian ryegrass = assay: Test E pre-/postemergence herbicide test; assay type: in vivo, Lolium multiflorum
Outline: as §1

goosegrass = assay: Test E pre-/postemergence herbicide test; assay type: in vivo, Eleusine indica
Outline: as §1

barnyardgrass = assay: Test E pre-/postemergence herbicide test; assay type: in vivo, Echinochloa crus-galli
Outline: as §1

tropical spiderwort = assay: Test E pre-/postemergence herbicide test; assay type: in vivo, Commelina benghalensis
Outline: as §1

broadleaf signalgrass = assay: Test E pre-/postemergence herbicide test; assay type: in vivo, Brachiaria platyphylla
Outline: as §1

southern sandbur = assay: Test E pre-/postemergence herbicide test; assay type: in vivo, Cenchrus echinatus
Outline: as §1

common sowthistle = assay: Test E pre-/postemergence herbicide test; assay type: in vivo, Sonchus oleraceous
Outline: as §1

[1] = Preemergence, 125 g ai/ha, scale 0 to 100
[2] = Preemergence, 250 g ai/ha, scale 0 (no effect) to 100 (complete control)
[3] = Preemergence, 500 g ai/ha, scale 0 (no effect) to 100 (complete control)
[4] = postemergence, 125 g ai/ha, scale 0 to 100
[5] = postemergence, 62 g ai/ha, scale 0 to 100
[6] = Preemergence, 62 g ai/ha, scale 0 to 100
[7] = Postemergence, 250 g ai/ha, scale 0 to 100, 0 no effect, 100 complete control
[8] = postemergence, 31 g ai/ha, scale 0 to 100
[9] = Postemergence, 500 g ai/ha, scale 0 to 100, 0 no effect, 100 complete control
[10] = Preemergence, 125 g ai/ha, scale 0 (no effect) to 100 (complete control)
[11] = Postemergence, 250 g ai/ha, scale 0 to 100
[12] = Postemergence, 500 g ai/ha, scale 0 to 100

SMILES: Cc1nn(C(C)(C)C)nc1C(=O)Nc1cccc(C(=O)N2CC=CC2)c1 [Compound 393]
- Plant response rating, Chickweed (common chickweed; [1]): 60
- Plant response rating, Chickweed (common chickweed; [2]): 100
- Plant response rating, Chickweed (common chickweed; [3]): 100
- Plant response rating, Wheat (wheat; [4]): 40
- Plant response rating, Wheat (wheat; [5]): 35
- Plant response rating, Foxtail, Green (green foxtail; [6]): 10
- Plant response rating, Foxtail, Green (green foxtail; [1]): 20
- Plant response rating, Foxtail, Green (green foxtail; [2]): 70
- Plant response rating, Foxtail, Green (green foxtail; [3]): 90
- Plant response rating, Black Mustard (mustard; [6]): 10
- Plant response rating, Black Mustard (mustard; [1]): 80
- Plant response rating, Black Mustard (mustard; [2]): 95
- Plant response rating, Black Mustard (mustard; [3]): 95
- Plant response rating, Bromegrass, Downy (downy bromegrass; [7]): 55
- Plant response rating, Bromegrass, Downy (downy bromegrass; [4]): 45
- Plant response rating, Bromegrass, Downy (downy bromegrass; [8]): 40
- Plant response rating, Bromegrass, Downy (downy bromegrass; [5]): 40
- Plant response rating, Guineagrass (guineagrass; [6]): 10
- Plant response rating, Guineagrass (guineagrass; [1]): 70
- Plant response rating, Guineagrass (guineagrass; [2]): 90
- Plant response rating, Guineagrass (guineagrass; [3]): 95
- Plant response rating, Ryegrass, Italian (Italian ryegrass; [6]): 10
- Plant response rating, Ryegrass, Italian (Italian ryegrass; [1]): 20
- Plant response rating, Ryegrass, Italian (Italian ryegrass; [2]): 85
- Plant response rating, Ryegrass, Italian (Italian ryegrass; [3]): 85
- Plant response rating, Goosegrass (goosegrass; [6]): 10
- Plant response rating, Goosegrass (goosegrass; [1]): 50
- Plant response rating, Goosegrass (goosegrass; [2]): 95
- Plant response rating, Goosegrass (goosegrass; [3]): 95
- Plant response rating, Barnyardgrass (barnyardgrass; [6]): 0
- Plant response rating, Barnyardgrass (barnyardgrass; [1]): 60
- Plant response rating, Barnyardgrass (barnyardgrass; [2]): 80
- Plant response rating, Barnyardgrass (barnyardgrass; [3]): 80
- Plant response rating, Spiderwort (tropical spiderwort; [1]): 100
- Plant response rating, Spiderwort (tropical spiderwort; [2]): 100
- Plant response rating, Spiderwort (tropical spiderwort; [3]): 100
- Plant response rating, Signalgrass (broadleaf signalgrass; [6]): 0
- Plant response rating, Signalgrass (broadleaf signalgrass; [1]): 30
- Plant response rating, Signalgrass (broadleaf signalgrass; [2]): 75
- Plant response rating, Signalgrass (broadleaf signalgrass; [3]): 85
- Plant response rating, Sandbur (southern sandbur; [6]): 0
- Plant response rating, Sandbur (southern sandbur; [1]): 50
- Plant response rating, Sandbur (southern sandbur; [2]): 50
- Plant response rating, Sandbur (southern sandbur; [3]): 60

SMILES: C=CCNC(=O)c1cccc(NC(=O)c2nn(C(C)(C)C)nc2CC)c1 [Compound 414]
- Plant response rating, Wheat (wheat; [9]): 30
- Plant response rating, Wheat (wheat; [4]): 10
- Plant response rating, Wheat (wheat; [5]): 10
- Plant response rating, Bromegrass, Downy (downy bromegrass; [7]): 55
- Plant response rating, Bromegrass, Downy (downy bromegrass; [9]): 60
- Plant response rating, Bromegrass, Downy (downy bromegrass; [4]): 45
- Plant response rating, Bromegrass, Downy (downy bromegrass; [5]): 40

SMILES: CCOC(=O)c1cccc(NC(=O)c2nn(C(C)(C)CC)nc2CC)c1 [Compound 375]
- Plant response rating, Wheat (wheat; [4]): 30
- Plant response rating, Wheat (wheat; [5]): 25
- Plant response rating, Bromegrass, Downy (downy bromegrass; [7]): 60
- Plant response rating, Bromegrass, Downy (downy bromegrass; [4]): 60
- Plant response rating, Bromegrass, Downy (downy bromegrass; [8]): 40
- Plant response rating, Bromegrass, Downy (downy bromegrass; [5]): 60

SMILES: CCNC(=O)c1ccc(F)c(NC(=O)c2cc(C(C)(C)C)nn2CC)c1 [Compound 2, 3-(1,1-dimethylethyl)-1-ethyl-N-[5-[(ethylamino)carbonyl]-2-fluorophenyl]-1H-pyrazole-5-carboxamide]
- Plant response rating, Chickweed (common chickweed; [6]): 90
- Plant response rating, Chickweed (common chickweed; [10]): 90
- Plant response rating, Chickweed (common chickweed; [2]): 95
- Plant response rating, Chickweed (common chickweed; [3]): 95
- Plant response rating, Chickweed (common chickweed; [4]): 100
- Plant response rating, Sowthistle (common sowthistle; [11]): 95
- Plant response rating, Sowthistle (common sowthistle; [6]): 90
- Plant response rating, Sowthistle (common sowthistle; [10]): 95
- Plant response rating, Sowthistle (common sowthistle; [2]): 95
- Plant response rating, Sowthistle (common sowthistle; [3]): 95
- Plant response rating, Sowthistle (common sowthistle; [4]): 90
- Plant response rating, Sowthistle (common sowthistle; [5]): 90
- Plant response rating, Foxtail, Green (green foxtail; [11]): 95
- Plant response rating, Foxtail, Green (green foxtail; [6]): 40
- Plant response rating, Foxtail, Green (green foxtail; [10]): 80
- Plant response rating, Foxtail, Green (green foxtail; [2]): 100
- Plant response rating, Foxtail, Green (green foxtail; [3]): 100
- Plant response rating, Foxtail, Green (green foxtail; [4]): 90
- Plant response rating, Foxtail, Green (green foxtail; [5]): 60
- Plant response rating, Black Mustard (mustard; [11]): 100
- Plant response rating, Black Mustard (mustard; [6]): 60
- Plant response rating, Black Mustard (mustard; [10]): 100
- Plant response rating, Black Mustard (mustard; [2]): 100
- Plant response rating, Black Mustard (mustard; [3]): 100
- Plant response rating, Black Mustard (mustard; [4]): 95
- Plant response rating, Black Mustard (mustard; [5]): 90
- Plant response rating, Guineagrass (guineagrass; [11]): 95
- Plant response rating, Guineagrass (guineagrass; [6]): 70
- Plant response rating, Guineagrass (guineagrass; [10]): 80
- Plant response rating, Guineagrass (guineagrass; [2]): 100
- Plant response rating, Guineagrass (guineagrass; [3]): 100
- Plant response rating, Guineagrass (guineagrass; [4]): 75
- Plant response rating, Guineagrass (guineagrass; [5]): 30
- Plant response rating, Ryegrass, Italian (Italian ryegrass; [11]): 98
- Plant response rating, Ryegrass, Italian (Italian ryegrass; [6]): 60
- Plant response rating, Ryegrass, Italian (Italian ryegrass; [10]): 80
- Plant response rating, Ryegrass, Italian (Italian ryegrass; [2]): 95
- Plant response rating, Ryegrass, Italian (Italian ryegrass; [3]): 95
- Plant response rating, Ryegrass, Italian (Italian ryegrass; [4]): 90
- Plant response rating, Ryegrass, Italian (Italian ryegrass; [5]): 80
- Plant response rating, Goosegrass (goosegrass; [11]): 98
- Plant response rating, Goosegrass (goosegrass; [6]): 80
- Plant response rating, Goosegrass (goosegrass; [10]): 90
- Plant response rating, Goosegrass (goosegrass; [2]): 95
- Plant response rating, Goosegrass (goosegrass; [3]): 95
- Plant response rating, Goosegrass (goosegrass; [4]): 95
- Plant response rating, Goosegrass (goosegrass; [5]): 95
- Plant response rating, Barnyardgrass (barnyardgrass; [11]): 95
- Plant response rating, Barnyardgrass (barnyardgrass; [6]): 60
- Plant response rating, Barnyardgrass (barnyardgrass; [10]): 80
- Plant response rating, Barnyardgrass (barnyardgrass; [2]): 100
- Plant response rating, Barnyardgrass (barnyardgrass; [3]): 100
- Plant response rating, Barnyardgrass (barnyardgrass; [4]): 90
- Plant response rating, Barnyardgrass (barnyardgrass; [5]): 80
- Plant response rating, Spiderwort (tropical spiderwort; [11]): 70
- Plant response rating, Spiderwort (tropical spiderwort; [6]): 20
- Plant response rating, Spiderwort (tropical spiderwort; [10]): 60
- Plant response rating, Spiderwort (tropical spiderwort; [2]): 70
- Plant response rating, Spiderwort (tropical spiderwort; [3]): 100
- Plant response rating, Spiderwort (tropical spiderwort; [5]): 20
- Plant response rating, Signalgrass (broadleaf signalgrass; [11]): 85
- Plant response rating, Signalgrass (broadleaf signalgrass; [6]): 50
- Plant response rating, Signalgrass (broadleaf signalgrass; [10]): 70
- Plant response rating, Signalgrass (broadleaf signalgrass; [2]): 75
- Plant response rating, Signalgrass (broadleaf signalgrass; [3]): 90
- Plant response rating, Signalgrass (broadleaf signalgrass; [4]): 80
- Plant response rating, Signalgrass (broadleaf signalgrass; [5]): 30
- Plant response rating, Sandbur (southern sandbur; [11]): 95
- Plant response rating, Sandbur (southern sandbur; [6]): 60
- Plant response rating, Sandbur (southern sandbur; [10]): 70
- Plant response rating, Sandbur (southern sandbur; [2]): 80
- Plant response rating, Sandbur (southern sandbur; [3]): 100
- Plant response rating, Sandbur (southern sandbur; [4]): 75
- Plant response rating, Sandbur (southern sandbur; [5]): 65

SMILES: CCNC(=O)c1ccc(F)c(NC(=O)c2c3c(nn2CC)C(C)(C)CC3)c1 [Compound 353]
- Plant response rating, Wheat (wheat; [7]): 30
- Plant response rating, Wheat (wheat; [9]): 35
- Plant response rating, Wheat (wheat; [4]): 15
- Plant response rating, Wheat (wheat; [5]): 10
- Plant response rating, Bromegrass, Downy (downy bromegrass; [7]): 30
- Plant response rating, Bromegrass, Downy (downy bromegrass; [9]): 35
- Plant response rating, Bromegrass, Downy (downy bromegrass; [4]): 20
- Plant response rating, Bromegrass, Downy (downy bromegrass; [5]): 10

SMILES: CCn1nc(C(C)(C)C)cc1C(=O)Nc1cccc(OC(F)F)c1 [Compound 332]
- Wheat plant response rating (wheat; [12]): 35
- Plant response rating, Wheat (wheat; [7]): 35
- Plant response rating, Wheat (wheat; [4]): 30
- Plant response rating, Wheat (wheat; [5]): 30
- Bromegrass, Downy plant response rating (downy bromegrass; [12]): 65
- Plant response rating, Bromegrass, Downy (downy bromegrass; [7]): 50
- Plant response rating, Bromegrass, Downy (downy bromegrass; [4]): 40
- Plant response rating, Bromegrass, Downy (downy bromegrass; [5]): 35

SMILES: CCn1nc(C(C)(C)C)cc1C(=O)Nc1cc(C(=S)N(C)C)ccn1 [Compound 334]
- Plant response rating, Wheat (wheat; [7]): 75
- Plant response rating, Wheat (wheat; [4]): 75
- Plant response rating, Wheat (wheat; [5]): 65
- Plant response rating, Bromegrass, Downy (downy bromegrass; [7]): 45
- Plant response rating, Bromegrass, Downy (downy bromegrass; [4]): 35
- Plant response rating, Bromegrass, Downy (downy bromegrass; [8]): 20
- Plant response rating, Bromegrass, Downy (downy bromegrass; [5]): 30
